Here are results for one substance from patent US20040110247A1, “New molecular tools for the rapid assessment of the presence and viability of microorganisms and methods of use” (priority 2002, published 2004).

Holding throughout (assay type): cell-based
The test system of test [1] is penicillin tolerant (Tol) Streptococcus gordonii. Put plainly: RT-qPCR of 16S rRNA after drug exposure, tolerant mutant control. Particulars: same system, Tol as control. As to the method:
(§1) 1) Strains and growth conditions: Wild-type (wt) and penicillin tolerant (Tol) Streptococcus gordonii (I. Caldelari et al., Antimicrobial Agents and Chemotherapy, 2000, 44(10):2802-2810) were grown at 37 degrees Celsius, either in brain heart infusion broth (BHI) without aeration, or on Columbia agar supplemented with 3% blood. Quantitative culture was performed by plating serial dilutions of bacterial cultures taken at various time points on penicillinase-containing blood-agar plates. Colonies counts were determined after incubation for […] at 37° C.
(§2) 3) Extraction and purification of bacterial DNA and RNA: (i) Total DNA from 3 ml of culture samples was extracted and purified using the DNeasy Tissue Kit according to the instructions of the manufacturer (Qiagen). […] Total RNA concentrations were determined by spectrophotometry and quality checked on 1% MOPS-agarose gels. […]
(§3) 4) Quantitative Real-Time PCR was performed using the following probe FAM-5′-TTGCACCACTACCAGATGGAC CTGC-3′-TAMRA (SEQ ID NO:3) according to the instruction of the manufacturer (Perkin-Elmer) on Sequence Detection System 5700 (Perkin-Elmer) in a total volume of 50 μl 1×PCR buffer (Gibco) containing 25 pmoles of each primer, […] of fluorescent probe, […] each dNTP and 1.5 UI of Taq DNA polymerase (Gibco). […]
(In general: Quantitative PCR measures a nucleic acid by following its amplification.)

Test [2] relates to Wild-type (wt) Streptococcus gordonii. Put plainly: Quantitative culture (colony counts) of drug-exposed S. gordonii cultures. The procedure:
as §1

Test [3] has the same test system. In words: RT-qPCR of 16S rRNA after drug exposure. Particulars: reverse transcription of 16S rRNA from total RNA, then qPCR. The procedure: as §1, §2, §3

As for penicillin, the “ribosomal RNA amplicons in penicillin-tolerant mutant Tol” value in test [1] was “remained stable and proportional to viable bacteria”. Moreover, the loss of viability in test [2] (after addition of penicillin, up to 50 hours) is listed as 5 log CFU/ml; in test [2] (cultures dramatically killed with penicillin (qualitative PCR experiment)), more than 3 log CFU/ml. The “16S rRNA amplicons (viability marker) during drug-induced killing” value in test [3] is given as “decreased proportionally to cell death”.
